Measurements taken from patent publication US8541457B2, “Aminothiazole derivatives as human stearoyl-CoA desaturase inhibitors” (Xenon Pharmaceuticals Inc., priority 2005, dated 2013).

| melting point | Compound |
| --- | --- |
| 171 to 172 °C | Cc1nc(NC(=O)c2ccncc2)sc1C(=O)NCc1ccccc1 [Example 1, N-(5-Benzylcarbamoyl-4-methylthiazol-2-yl)isonicotinamide] |
| 175 to 176 °C | CCC(=O)Nc1nc(C)c(C(=O)NCc2ccccc2)s1 [Example 2.1, 4-Methyl-2-propionylaminothiazole-5-carboxylic Acid Benzylamide] |
| 241 to 243 °C | Cc1nc(NC(=O)C2CC2)sc1C(=O)NCc1ccccc1 [Example 2.2, 2-(Cyclopropanecarbonylamino)-4-methylthiazole-5-carboxylic Acid Benzylamide] |
| 178 to 179 °C | Cc1nc(NC(=O)c2cccc(Cl)c2)sc1C(=O)NCc1ccccc1 [Example 2.19, 2-(3-Chlorobenzoylamino)-4-methylthiazole-5-carboxylic Acid Benzylamide] |
| 95 to 96 °C | Cc1nc(NC(=O)c2ccc(F)cc2Cl)sc1C(=O)NCc1ccccc1 [Example 2.20, 2-(2-Chloro-4-fluorobenzoylamino)-4-methylthiazole-5-carboxylic Acid Benzylamide] |
| 140 to 141 °C | Cc1nc(NC(=O)c2ccccc2OC(F)(F)F)sc1C(=O)NCc1ccccc1 [Example 2.21, 4-Methyl-2-(2-trifluoromethoxybenzoylamino)thiazole-5-carboxylic Acid Benzylamide] |
| 195 to 196 °C | Cc1nc(NC(=O)c2cccc(C(F)(F)F)c2)sc1C(=O)NCc1ccccc1 [Example 2.22, 4-Methyl-2-(3-trifluoromethylbenzoylamino)thiazole-5-carboxylic Acid Benzylamide] |
| 99 to 101 °C | Cc1nc(NC(=O)c2cccc3ccccc23)sc1C(=O)NCc1ccccc1 [Example 2.23, 4-Methyl-2-[(naphthalene-1-carbonyl)amino]thiazole-5-carboxylic Acid Benzylamide] |
| 104 to 105 °C | Cc1nc(NC(=O)c2cc(Cl)cc(Cl)c2)sc1C(=O)NCc1ccccc1 [Example 2.24, 2-(3,5-Dichlorobenzoylamino)-4-methylthiazole-5-carboxylic Acid Benzylamide] |
| 256 to 258 °C | Cc1nc(NC(=O)c2ccc(C#N)cc2)sc1C(=O)NCc1ccccc1 [Example 2.25, 2-(4-Cyanobenzoylamino)-4-methylthiazole-5-carboxylic Acid Benzylamide] |
| 207 to 208 °C | Cc1nc(NC(=O)c2cccc(C#N)c2)sc1C(=O)NCc1ccccc1 [Example 2.26, 2-(3-Cyanobenzoylamino)-4-methylthiazole-5-carboxylic Acid Benzylamide] |
| 224 to 226 °C | Cc1nc(NC(=O)c2cccnc2)sc1C(=O)NCc1ccccc1 [Example 2.27, N-(5-Benzylcarbamoyl-4-methylthiazol-2-yl)nicotinamide] |
| 230 to 232 °C | Cc1nc(NC(=O)c2cccc(OC(F)(F)F)c2)sc1C(=O)NCc1ccccc1 [Example 2.28, 4-Methyl-2-(3-trifluoromethoxybenzoylamino)thiazole-5-carboxylic Acid Benzylamide] |
| 84 to 86 °C | Cc1nc(NC(=O)c2cc(F)cc(F)c2)sc1C(=O)NCc1ccccc1 [Example 2.29, 2-(3,5-Difluorobenzoylamino)-4-methylthiazole-5-carboxylic Acid Benzylamide] |
| 175 to 178 °C | Cc1nc(NC(=O)c2cc(Cl)ccc2F)sc1C(=O)NCc1ccccc1 [Example 2.30, 2-(5-Chloro-2-fluorobenzoylamino)-4-methylthiazole-5-carboxylic Acid Benzylamide] |
| 162 to 165 °C | Cc1nc(NC(=O)c2cccc(F)c2)sc1C(=O)NCc1ccccc1 [Example 2.31, 2-(3-Fluorobenzoylamino)-4-methylthiazole-5-carboxylic Acid Benzylamide] |

| melting point | Compound |
| --- | --- |
| 168 to 170 °C | Cc1nc(NC(=O)c2ccc(OC(F)(F)F)cc2)sc1C(=O)NCc1ccccc1 [Example 2.32, 4-Methyl-2-(4-trifluoromethoxybenzoylamino)thiazole-5-carboxylic Acid Benzylamide] |
| 203 to 204 °C | COc1ccc(C(=O)Nc2nc(C)c(C(=O)NCc3ccccc3)s2)cc1 [Example 2.33, 2-(4-Methoxybenzoylamino)-4-methylthiazole-5-carboxylic Acid Benzylamide] |
| 75 to 77 °C | COc1cccc(C(=O)Nc2nc(C)c(C(=O)NCc3ccccc3)s2)c1 [Example 2.34, 2-(3-Methoxybenzoylamino)-4-methylthiazole-5-carboxylic Acid Benzylamide] |
| 111 to 113 °C | Cc1nc(NC(=O)c2cccc(S(C)(=O)=O)c2)sc1C(=O)NCc1ccccc1 [Example 2.35, 2-(3-Methanesulfonylbenzoylamino)-4-methylthiazole-5-carboxylic Acid Benzylamide] |
| 239 to 242 °C | Cc1nc(NC(=O)c2ccccc2S(C)(=O)=O)sc1C(=O)NCc1ccccc1 [Example 2.36, 2-(2-Methanesulfonylbenzoylamino)-4-methylthiazole-5-carboxylic Acid Benzylamide] |
| 212 to 214 °C | Cc1nc(NC(=O)c2ccc(Cl)c(Cl)c2)sc1C(=O)NCc1ccccc1 [Example 2.37, 2-(3,4-Dichlorobenzoylamino)-4-methylthiazole-5-carboxylic Acid Benzylamide] |
| 262 to 265 °C | Cc1nc(NC(=O)c2ccc(S(C)(=O)=O)cc2)sc1C(=O)NCc1ccccc1 [Example 2.38, 2-(4-Methanesulfonylbenzoylamino)-4-methylthiazole-5-carboxylic Acid Benzylamide] |
| 63 to 65 °C | Cc1nc(NC(=O)Cc2ccccc2)sc1C(=O)NCc1ccccc1 [Example 2.39, 4-Methyl-2-phenylacetylaminothiazole-5-carboxylic Acid Benzylamide] |
| 63 to 65 °C | Cc1nc(NC(=O)CCc2ccccc2)sc1C(=O)NCc1ccccc1 [Example 2.40, 4-Methyl-2-(3-phenylpropionylamino)thiazole-5-carboxylic Acid Benzylamide] |
| 136 to 139 °C | Cc1nc(NC(=O)CC2CC2)sc1C(=O)NCc1ccccc1 [Example 2.41, 2-(2-Cyclopropylacetylamino)-4-methylthiazole-5-carboxylic Acid Benzylamide] |
| 242 to 245 °C | Cc1ccc(S(=O)(=O)Nc2nc(C)c(C(=O)NCc3ccccc3)s2)cc1 [Example 2.42, 4-Methyl-2-(toluene-4-sulfonylamino)thiazole-5-carboxylic Acid Benzylamide] |
| 87 to 89 °C | CCC(NC(=O)c1sc(NC(=O)c2ccccc2)nc1C)c1ccccc1 (stereo not shown) [Example 3, 2-Benzoylamino-4-methylthiazole-5-carboxylic Acid (1-Phenylpropyl)amide] |
| 247 to 249 °C | O=C(Nc1nc(Cl)c(C(=O)NCc2ccccc2)s1)c1ccccc1 [Example 3.1, 2-Benzoylamino-4-chlorothiazole-5-carboxylic Acid Benzylamide] |
| > 300 °C | Cc1nc(NC(=O)Nc2ccccc2)sc1C(=O)NCc1ccccc1 [Example 4, 4-Methyl-2-(3-phenylureido)thiazole-5-carboxylic Acid Benzylamide] |
| > 300 °C | Cc1nc(NC(=O)Nc2ccc(F)cc2)sc1C(=O)NCc1ccccc1 [Example 4.1, 2-[3-(4-Fluorophenyl)ureido]-4-methylthiazole-5-carboxylic Acid Benzylamide] |
